{"source": "patent US20180064662A1", "about": "(THE GENERAL HOSPITAL CORPORATION, priority 2015, published 2018)", "tested_on": "PAN02 tumors", "assay": "Orthotopic PAN02 PDAC model in obese C57BL/6 mice, metformin in drinking water", "assay_type": "in vivo, mouse", "excerpt": "Wild-type (WT) C57BL/6 and FVB male mice were originally obtained from The Jackson Laboratory (The Jackson Laboratory, Bar Harbor, Me.) and bred and maintained in our defined-flora animal facility. Mice were maintained on a 12-h light-dark cycle in a temperature-controlled barrier facility, with ad libitum access to food and acidified water. To generate obese/diabetic mouse models, mice (6-weeks old) were given a 60% fat diet (D12492, Research Diets, New Brunswick, N.J.) for 10 weeks as previously described (49-51). For tumor experiments, the PAN02 and AK4.4 syngeneic PDAC models were used in C57BL/6 and FVB immunocompetent mice, respectively. PAN02 cells (SMAD4-m174) (52) were obtained from ATCC. AK4.4 cells (KrasG12D and p53^+/−) were isolated from mice generating spontaneous pancreatic tumors (Pt∫1-Cre/LSL-Kras^G12D/p53^Loxi−) (53). Orthotopic pancreatic tumors were generated by implanting a small piece (1 mm^3) of viable tumor tissue (from a source tumor in a separate donor animal) into the pancreas of a 6-8- week-old male lean or obese FVB (AK4.4 model) or C57BL/6 (PAN02 model) mouse. Both tumor models used were authenticated by IDEXX Laboratories. (PAN02: IDEXX RADIL Case # 22366-2013. AK4.4: IDEXX RADIL Case # 27818-2014).\nAt day 21, plasma and tumor samples were collected, and tumors were weighed and processed for further analysis.\nThis can be translated to the human equivalent dose by using the Reagan-Shaw method (54). According to the formula for the human equivalent dose [(mg/kg)=animal dose (mg/kg)×animal (km)/human (km). Km for a 60 kg human adults equals 37 and for a 20 g mouse equals 3], the human equivalent of murine dose of 300 mg/kg is 1459 mg for an average sized 60 kg adult human. Therefore, the selected dose in the present study is within the safe therapeutic range recorded in humans. […] This was compatible with the therapeutic periods reported in previous studies (55, 56). […] The amount added to each animal cage was calculated based on the average daily water intake for that cage during a period of 2 weeks prior to treatment initiation, and adjusted every three days based on water consumption and body weight of the animals. […] For in vitro experiments, a range of concentration from 0.05 to 25 mM depending on the cell line used, as discussed below.\nImmediately following excision, tumor tissue was snap frozen and stored in liquid nitrogen. Total RNA was extracted and relative gene expression for macrophage M1/M2 markers was determined using a Sybr-green based standard protocol. In addition, total RNA was extracted and relative gene expression was determined using RT2 Profiler PCR Arrays system (Qiagen) on a Stratagene Mx3000P QPCR System using pre-made pathway-focused arrays (“Fibrosis”-Cat. Number: PAMM011Z; “Epithelial to Mesenchymal Transition (EMT)”-Cat. Number: PAMM090Z; “TGF-β signaling targets”-PAMM235Z; “Extracellular Matrix & Adhesion Molecules”-Cat. Number: PAMM013Z; and “Common cytokines ”-Cat. Number: PAMM021Z).\nEach tumor sample was homogenized directly in lysis buffer for protein extraction. 20 ug of denatured protein per sample was loaded on 7%, 10% and 12% SDS-polyacrylamide gels. Antibodies used: phospho-p38 MAPKT^180/Y182 and p38; phospho-JNK (SAPK/JNK)^Thr183/Tyr185 and JNK; phospho-AKT^Ser473 and AKT, phospho-ERK(p44/42 MAPK)^T202/Y204 and ERK; phospho-NF-κB^Ser536 and NK-κB; p65^Ser536; phospho-Smad2^Ser465/467 and Smad2; phospho-IGF-I Receptor β^Tyr1135 and IGF; Phospho-IRS-1^Ser612 and IRS; IR; phpspho-stat3^Tyr705 and stat3; Phospho-AMPKα^Thr172 and Ampkα; phospho-Ampkβ^Ser108 and Ampk; phospho-ACC^Ser79 and ACC; Phospho-PDGF Receptor β^Tyr751 and PDGF Receptor β and snail, c-cadherin and vimentin, TGF-β, β-catenin, twist, LC3B. […]", "key": {"[1]": {"conditions": "TAMs from PAN02 tumors in vivo, qPCR"}, "[2]": {"conditions": "obese C57BL/6 mice, metformin 300 mg/Kg"}, "[3]": {"conditions": "particularly evident in the more metastatic model PAN02"}}, "data": [{"smiles": "CN(C)C(=N)N=C(N)N", "note": "[metformin, 3-(diaminomethylidene)-1,1-dimethylguanidine]", "values": [{"measurement": "expression of M1 markers in flow-sorted TAMs", "setting": "[1]", "value": "without significantly affecting"}, {"measurement": "expression of M2 marker Arg-1 in flow-sorted TAMs", "setting": "[1]", "value": "1/2"}, {"measurement": "expression of M2 marker IL-10 in flow-sorted TAMs", "setting": "[1]", "value": "2/3"}, {"measurement": "activation and phosphorylation of IGFR-1 and IRS-1 in tumors", "setting": "Western blot", "value": "trend for reduced activation and phosphorylation"}, {"measurement": "activation of ACC in tumors", "setting": "Western blot", "value": "increased"}, {"measurement": "expression of the autophagy marker L3CB", "setting": "Western blot", "value": "unchanged"}, {"measurement": "average MMP-2 levels in metformin treated tumors", "setting": "Western blot, not significant", "value": "approximately half"}, {"measurement": "IL-1β in tumors", "setting": "after metformin treatment", "value": "reduction of IL-1β"}, {"measurement": "TAM levels lower with metformin treatment", "setting": "flow cytometry, not significant", "value": "~30", "unit": "%"}, {"measurement": "activation of STAT3 in whole tumors", "setting": "[2]", "value": "decreased activation of STAT3"}, {"measurement": "p38 activation in whole tumors", "setting": "[2]", "value": "trend for reduced p38"}, {"measurement": "decreased expression of HA", "setting": "obese C57BL/6 mice, metformin 300 mg/Kg in drinking water, did not reach statistical significance", "value": 40, "unit": "%"}, {"measurement": "reduced density of HA positive activated-PSCs", "setting": "obese C57BL/6 mice, metformin 300 mg/Kg, did not reach significance", "value": 57, "unit": "%"}, {"measurement": "decreased expression of collagen-I", "setting": "obese C57BL/6 mice, metformin 300 mg/Kg, did not reach statistical significance", "value": 22, "unit": "%"}, {"measurement": "reduced density of collagen-I positive activated PSCs in tumors", "setting": "obese C57BL/6 mice, metformin 300 mg/Kg, significant", "value": 54, "unit": "%"}, {"measurement": "average number of mesenteric peritoneal and retroperitoneal wall metastasis per mouse", "setting": "[3]", "value": "reduced"}, {"measurement": "incidence of metastasis (number of mice affected)", "setting": "[3]", "value": "reduced the incidence of metastasis"}, {"measurement": "body weight", "setting": "tumor-bearing mice", "value": "no change in body weight"}]}]}
